Measurements reported in ChEMBL document CHEMBL1201862, “PubChem BioAssay data set” (2004).
Calls of active or inactive are those of the source.

What was measured:
[1] = biological target: Estrogen receptor beta (Homo sapiens, UniProt Q92731);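 note: recombinant ER-beta bound to coactivator SRC1 peptide in presence of estradiol agonist; inhibitors block coactivator peptide binding and lower the FRET signal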
[2] = biological target: T1, Coagulation factor XII (Homo sapiens, UniProt P00748); type: functional;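 note: activated factor XIIa alpha cleaving a fluorogenic AMC peptide substrate; inhibitor potency from loss of enzyme activity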
T1 sequence (P00748 whole entry): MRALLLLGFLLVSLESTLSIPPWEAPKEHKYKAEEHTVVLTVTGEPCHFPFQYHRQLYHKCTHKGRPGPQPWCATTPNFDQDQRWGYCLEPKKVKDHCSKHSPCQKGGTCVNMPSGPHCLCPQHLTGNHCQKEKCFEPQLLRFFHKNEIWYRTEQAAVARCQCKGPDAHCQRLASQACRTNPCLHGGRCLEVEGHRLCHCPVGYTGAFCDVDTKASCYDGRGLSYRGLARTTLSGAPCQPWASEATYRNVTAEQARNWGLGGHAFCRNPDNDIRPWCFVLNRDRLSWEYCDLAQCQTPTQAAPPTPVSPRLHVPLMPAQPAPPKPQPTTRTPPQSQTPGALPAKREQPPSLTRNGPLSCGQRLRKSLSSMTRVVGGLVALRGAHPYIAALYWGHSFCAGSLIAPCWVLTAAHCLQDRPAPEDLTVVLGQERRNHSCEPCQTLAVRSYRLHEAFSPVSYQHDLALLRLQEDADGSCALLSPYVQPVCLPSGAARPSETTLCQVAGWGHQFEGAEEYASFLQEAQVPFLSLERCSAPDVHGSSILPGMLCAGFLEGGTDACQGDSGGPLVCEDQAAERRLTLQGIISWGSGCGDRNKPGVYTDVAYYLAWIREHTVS

[3] = Luminescence Cell-Based Dose Response to Identify Activators of 5'UTR Stem-Loop Driven Prion Protein mRNA Translation in H4-C Neuroglioblastoma Cells. [Related pubchem assays: 1829 (Project Summary), 1814 (Primary HTS)]; type: functional
[4] = biological target: Peroxisome proliferator-activated receptor gamma/Nuclear receptor coactivator 1 (Homo sapiens, UniProt P37231); assay: TR-FRET dose response biochemical High Throughput Screening assay for agonists of the steroid receptor coactivator 1 (SRC-1) recruitment by the peroxisome proliferator-activated receptor gamma (PPAR gamma): non-selective agonists. [Related pubchem assays (depositor defined):AID1300, AID1808, AID504735, AID631]; type: protein assay
[5] = Luminescence Cell-Based Dose Response HTS to Identify Activators of Luciferase Translation or Activity in H4 […] Cells. [Related pubchem assays: 1829 (Project Summary), 1814 (Primary HTS)]; type: functional
[6] = biological target: Peroxisome proliferator-activated receptor gamma/Nuclear receptor coactivator 3 (Homo sapiens, UniProt P37231); assay: TR-FRET dose response biochemical High Throughput Screening assay for agonists of the steroid receptor coactivator 3 (SRC-3) recruitment by the peroxisome proliferator-activated receptor gamma (PPAR gamma): non-selective agonists. [Related pubchem assays: 1301 (Confirmation screen.), 1048 (Primary screen.)]; type: functional
[7] = test system: H4; assay: Luminescence Cell-Based Dose Response HTS to Identify Activators of 5'UTR Stem-Loop Driven Prion Protein mRNA Translation in H4 Neuroglioblastoma Cells. [Related pubchem assays: 1829 (Project Summary), 1814 (Primary HTS)]; type: functional; conditions: Homo sapiens
[8] = Luminescence Cell-Based Dose Response to Identify Activators of Luciferase Translation or Activity in H4-C Neuroglioblastoma Cells. [Related pubchem assays: 1829 (Project Summary), 1814 (Primary HTS)]; type: functional
[9] = biological target: Peroxisome proliferator-activated receptor gamma/Nuclear receptor coactivator 2 (Homo sapiens, UniProt P37231); assay: TR-FRET dose response biochemical High Throughput Screening assay for agonists of the steroid receptor coactivator 2 (SRC-2) recruitment by the peroxisome proliferator-activated receptor gamma (PPAR gamma): non-selective agonists. [Related pubchem assays: 1297, 1032 ]; type: functional
[10] = Luminescence Cell-Based Dose Confirmation to Identify Activators of 5'UTR Stem-Loop Driven Alpha-Synuclein mRNA Translation in H4 Neuroglioblastoma Cells. [Related pubchem assays: 1829 (Project Summary), 1814 (Primary HTS)]; type: functional
[11] = cytotoxicity in HPDE-C7 cells, cell-based, fluorescence, HTS (AID 430); type: functional; conditions: Homo sapiens
[12] = cytotoxicity in KRAS-transformed pancreatic duct cells, primary screen, cell-based, fluorescence, HTS (AID 431); type: functional; conditions: Homo sapiens;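 note: cell line used: HPDE-C7K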
[13] = biological target: T2, Voltage-gated N-type calcium channel alpha-1B subunit/Amyloid beta A4 precursor protein-binding family A member 1 (Homo sapiens, UniProt Q00975+Q02410); type: protein assay
T2 sequence (Q00975 whole entry): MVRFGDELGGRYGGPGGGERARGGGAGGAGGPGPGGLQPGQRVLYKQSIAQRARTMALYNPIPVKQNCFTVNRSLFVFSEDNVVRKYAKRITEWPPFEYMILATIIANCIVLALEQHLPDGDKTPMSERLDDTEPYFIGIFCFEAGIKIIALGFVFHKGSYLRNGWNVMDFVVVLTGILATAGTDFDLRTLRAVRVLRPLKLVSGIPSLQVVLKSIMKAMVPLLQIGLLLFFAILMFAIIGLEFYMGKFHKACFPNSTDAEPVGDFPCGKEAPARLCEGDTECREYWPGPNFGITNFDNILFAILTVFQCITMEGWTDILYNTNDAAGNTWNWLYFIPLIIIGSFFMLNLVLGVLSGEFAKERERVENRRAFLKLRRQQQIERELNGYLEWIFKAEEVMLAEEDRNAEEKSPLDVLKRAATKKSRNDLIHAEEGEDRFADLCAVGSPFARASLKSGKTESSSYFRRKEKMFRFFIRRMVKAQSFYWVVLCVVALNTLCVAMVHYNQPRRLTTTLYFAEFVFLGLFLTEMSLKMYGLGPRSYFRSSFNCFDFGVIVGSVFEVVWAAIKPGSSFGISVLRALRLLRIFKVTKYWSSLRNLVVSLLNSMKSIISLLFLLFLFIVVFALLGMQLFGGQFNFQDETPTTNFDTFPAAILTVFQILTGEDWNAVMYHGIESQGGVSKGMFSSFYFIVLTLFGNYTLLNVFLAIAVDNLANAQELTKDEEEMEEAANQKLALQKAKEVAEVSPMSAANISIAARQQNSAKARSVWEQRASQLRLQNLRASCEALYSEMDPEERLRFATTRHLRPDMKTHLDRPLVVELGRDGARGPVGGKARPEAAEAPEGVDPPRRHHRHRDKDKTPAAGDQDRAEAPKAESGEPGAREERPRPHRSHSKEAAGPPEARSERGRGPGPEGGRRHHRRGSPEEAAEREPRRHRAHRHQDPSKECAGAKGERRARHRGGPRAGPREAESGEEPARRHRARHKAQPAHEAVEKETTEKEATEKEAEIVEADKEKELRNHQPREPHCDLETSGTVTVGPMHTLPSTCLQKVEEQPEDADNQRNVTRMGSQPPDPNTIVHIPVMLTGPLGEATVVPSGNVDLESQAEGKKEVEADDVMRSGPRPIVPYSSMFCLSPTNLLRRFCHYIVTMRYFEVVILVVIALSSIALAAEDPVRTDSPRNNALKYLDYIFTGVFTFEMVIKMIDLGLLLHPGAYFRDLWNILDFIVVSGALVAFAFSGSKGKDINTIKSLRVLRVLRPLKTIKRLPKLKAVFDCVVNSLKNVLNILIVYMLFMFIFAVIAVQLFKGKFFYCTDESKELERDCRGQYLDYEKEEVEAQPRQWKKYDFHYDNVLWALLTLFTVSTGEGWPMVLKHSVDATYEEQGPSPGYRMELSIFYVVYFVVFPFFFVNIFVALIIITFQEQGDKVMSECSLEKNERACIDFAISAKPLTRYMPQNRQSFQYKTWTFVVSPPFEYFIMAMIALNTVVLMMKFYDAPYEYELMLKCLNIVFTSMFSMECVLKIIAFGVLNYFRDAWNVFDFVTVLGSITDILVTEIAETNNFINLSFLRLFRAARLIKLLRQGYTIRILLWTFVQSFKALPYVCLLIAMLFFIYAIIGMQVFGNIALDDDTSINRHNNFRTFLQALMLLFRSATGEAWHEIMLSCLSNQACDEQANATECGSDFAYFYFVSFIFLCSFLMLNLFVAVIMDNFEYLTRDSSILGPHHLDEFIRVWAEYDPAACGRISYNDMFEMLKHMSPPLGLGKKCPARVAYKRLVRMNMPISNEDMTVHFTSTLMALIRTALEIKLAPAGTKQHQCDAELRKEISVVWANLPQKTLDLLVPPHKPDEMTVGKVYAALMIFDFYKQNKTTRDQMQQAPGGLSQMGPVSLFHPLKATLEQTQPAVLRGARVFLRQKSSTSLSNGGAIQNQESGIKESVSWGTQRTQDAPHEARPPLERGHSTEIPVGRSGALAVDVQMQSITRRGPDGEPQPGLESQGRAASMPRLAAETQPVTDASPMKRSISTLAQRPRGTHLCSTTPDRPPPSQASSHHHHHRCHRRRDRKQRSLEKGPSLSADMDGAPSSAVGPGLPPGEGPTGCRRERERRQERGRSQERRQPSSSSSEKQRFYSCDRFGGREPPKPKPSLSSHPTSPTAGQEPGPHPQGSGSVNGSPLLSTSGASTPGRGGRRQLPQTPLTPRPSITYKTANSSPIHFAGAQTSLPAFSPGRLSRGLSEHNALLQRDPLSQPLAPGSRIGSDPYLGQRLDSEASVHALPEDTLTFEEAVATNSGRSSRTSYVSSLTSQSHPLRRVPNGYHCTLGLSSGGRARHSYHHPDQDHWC
T2 sequence (Q02410 whole entry): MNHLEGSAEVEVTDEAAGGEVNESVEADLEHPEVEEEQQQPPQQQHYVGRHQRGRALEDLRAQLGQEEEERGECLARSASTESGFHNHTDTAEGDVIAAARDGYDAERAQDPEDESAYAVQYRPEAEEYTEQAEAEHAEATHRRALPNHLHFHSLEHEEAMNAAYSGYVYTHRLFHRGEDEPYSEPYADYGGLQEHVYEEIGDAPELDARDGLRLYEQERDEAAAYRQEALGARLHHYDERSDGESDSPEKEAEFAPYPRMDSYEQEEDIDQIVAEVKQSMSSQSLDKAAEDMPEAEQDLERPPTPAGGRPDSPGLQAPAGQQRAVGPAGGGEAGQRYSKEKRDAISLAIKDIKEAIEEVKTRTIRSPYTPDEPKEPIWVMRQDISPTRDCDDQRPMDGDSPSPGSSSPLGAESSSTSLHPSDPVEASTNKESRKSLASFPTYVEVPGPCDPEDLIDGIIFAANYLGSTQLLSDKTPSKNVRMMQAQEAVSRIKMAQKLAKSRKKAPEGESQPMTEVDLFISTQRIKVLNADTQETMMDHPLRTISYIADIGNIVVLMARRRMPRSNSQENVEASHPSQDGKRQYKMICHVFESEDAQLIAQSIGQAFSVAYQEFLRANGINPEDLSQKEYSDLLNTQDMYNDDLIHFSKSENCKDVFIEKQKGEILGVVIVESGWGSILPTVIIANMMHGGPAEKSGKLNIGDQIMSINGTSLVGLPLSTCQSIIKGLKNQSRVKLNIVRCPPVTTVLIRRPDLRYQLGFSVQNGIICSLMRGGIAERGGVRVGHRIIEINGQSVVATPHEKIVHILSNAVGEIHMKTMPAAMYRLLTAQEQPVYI

[14] = biological target: T2, Voltage-gated N-type calcium channel alpha-1B subunit/Amyloid beta A4 precursor protein-binding family A member 1; type: protein assay; remark: listed apart in the source
[15] = biological target: T3, Polyadenylate-binding protein 1 (Homo sapiens, UniProt P11940); assay: PABP1 MLLE–PAM2 interaction inhibitors, dose response, miRNA deadenylation inhibitor project, biochemical, fluorescence polarization, Cy5-PAM2 peptide, secondary (AID 602260); type: functional; conditions: read-out: IC50_Mean
[16] = biological target: T3, Polyadenylate-binding protein 1; assay: PABP1 MLLE–PAM2 binding inhibitor potency, dose response, biochemical, fluorescence polarization, FITC-PAM2 peptide (AID 602259); type: functional; conditions: read-out: IC50_Mean
[17] = Luminescence Cell-Based Dose Retest to Confirm Inhibitors of Cancer Stem Cells. [Related pubchem assays (depositor defined):AID2717, AID2721]; type: functional; conditions: Homo sapiens
[18] = biological target: Disintegrin and metalloproteinase domain-containing protein 17 (Homo sapiens, UniProt P78536); assay: exosite inhibitors of ADAM17, dose response, biochemical (AID 743260)
Disintegrin and metalloproteinase domain-containing protein 17, sequence (P78536 whole entry, the tested form may be a part): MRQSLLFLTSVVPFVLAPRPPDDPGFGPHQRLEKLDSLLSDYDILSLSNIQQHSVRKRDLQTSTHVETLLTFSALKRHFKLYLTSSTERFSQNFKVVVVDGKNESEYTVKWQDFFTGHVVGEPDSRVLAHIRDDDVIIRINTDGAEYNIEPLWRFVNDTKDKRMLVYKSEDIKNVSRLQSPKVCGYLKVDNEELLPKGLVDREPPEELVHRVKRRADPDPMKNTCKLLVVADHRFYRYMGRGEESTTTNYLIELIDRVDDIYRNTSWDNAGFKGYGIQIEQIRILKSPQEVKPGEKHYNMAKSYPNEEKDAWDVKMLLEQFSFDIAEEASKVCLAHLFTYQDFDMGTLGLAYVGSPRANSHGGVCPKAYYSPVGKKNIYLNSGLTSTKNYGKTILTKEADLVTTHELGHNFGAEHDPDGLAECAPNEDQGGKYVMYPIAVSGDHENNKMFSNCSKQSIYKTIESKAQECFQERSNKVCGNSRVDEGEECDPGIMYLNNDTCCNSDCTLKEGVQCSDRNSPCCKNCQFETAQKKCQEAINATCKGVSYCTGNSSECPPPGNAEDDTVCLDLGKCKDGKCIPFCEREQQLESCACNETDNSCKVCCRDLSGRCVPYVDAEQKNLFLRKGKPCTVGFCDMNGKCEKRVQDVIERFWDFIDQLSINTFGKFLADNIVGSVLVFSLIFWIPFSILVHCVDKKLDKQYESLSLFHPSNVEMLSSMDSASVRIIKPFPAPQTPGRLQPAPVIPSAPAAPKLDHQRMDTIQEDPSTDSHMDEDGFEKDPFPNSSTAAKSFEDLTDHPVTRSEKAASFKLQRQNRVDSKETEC

[19] = ADAM10 protease inhibitors, dose response, selectivity assay for ADAM17 exosite inhibitor project, biochemical, FRET peptide substrate, recombinant human ADAM10 (AID 743259);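 note: ADAM10 enzyme cleaving a FRET peptide substrate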
[20] = biological target: T4, Histone-lysine N-methyltransferase NSD2 (Homo sapiens, UniProt O96028); type: biochemical
T4 sequence (O96028 whole entry): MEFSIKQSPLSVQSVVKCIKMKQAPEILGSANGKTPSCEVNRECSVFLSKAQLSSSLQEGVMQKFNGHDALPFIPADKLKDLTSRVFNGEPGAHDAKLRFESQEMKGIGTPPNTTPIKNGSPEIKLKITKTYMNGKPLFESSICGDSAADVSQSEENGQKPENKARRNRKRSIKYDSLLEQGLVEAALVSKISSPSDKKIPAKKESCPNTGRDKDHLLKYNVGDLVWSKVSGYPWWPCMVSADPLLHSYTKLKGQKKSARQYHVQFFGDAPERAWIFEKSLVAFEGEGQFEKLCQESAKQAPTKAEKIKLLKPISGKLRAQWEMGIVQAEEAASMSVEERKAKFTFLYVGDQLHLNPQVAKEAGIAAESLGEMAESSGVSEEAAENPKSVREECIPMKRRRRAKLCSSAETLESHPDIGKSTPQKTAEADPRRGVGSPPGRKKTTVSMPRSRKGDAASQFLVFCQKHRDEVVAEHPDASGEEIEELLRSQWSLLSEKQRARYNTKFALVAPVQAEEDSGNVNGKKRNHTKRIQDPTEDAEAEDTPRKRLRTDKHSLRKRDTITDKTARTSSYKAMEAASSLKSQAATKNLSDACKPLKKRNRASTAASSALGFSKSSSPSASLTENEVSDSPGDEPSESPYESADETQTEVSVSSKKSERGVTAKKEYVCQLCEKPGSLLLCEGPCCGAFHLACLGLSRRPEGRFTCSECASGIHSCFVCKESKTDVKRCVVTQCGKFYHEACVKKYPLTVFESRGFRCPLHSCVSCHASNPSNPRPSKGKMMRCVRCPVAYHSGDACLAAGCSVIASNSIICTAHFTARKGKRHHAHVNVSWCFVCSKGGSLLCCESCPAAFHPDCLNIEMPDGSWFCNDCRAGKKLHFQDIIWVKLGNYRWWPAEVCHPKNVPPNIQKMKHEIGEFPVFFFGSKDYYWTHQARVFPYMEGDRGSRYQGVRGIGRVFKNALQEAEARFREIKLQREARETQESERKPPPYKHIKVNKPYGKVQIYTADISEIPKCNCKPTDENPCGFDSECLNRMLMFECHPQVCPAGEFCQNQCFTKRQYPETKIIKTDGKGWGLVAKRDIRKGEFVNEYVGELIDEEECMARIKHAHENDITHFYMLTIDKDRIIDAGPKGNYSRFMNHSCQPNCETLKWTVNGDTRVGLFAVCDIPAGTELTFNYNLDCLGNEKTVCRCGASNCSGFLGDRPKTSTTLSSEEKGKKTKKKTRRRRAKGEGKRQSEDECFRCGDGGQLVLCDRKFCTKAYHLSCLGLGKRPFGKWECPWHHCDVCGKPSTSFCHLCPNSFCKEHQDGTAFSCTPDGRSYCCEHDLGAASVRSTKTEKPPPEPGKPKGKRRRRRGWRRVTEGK

[21] = biological target: Cytochrome P450 3A4 (Homo sapiens, UniProt P08684);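 note: CYP3A4 tested as one member of a cytochrome P450 panel screen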
[22] = HEp-2 cell cytotoxicity, dose response, cytotoxicity control for RSV inhibitor project, HTS (AID 2410); type: functional; conditions: human respiratory syncytial virus
[23] = Luminescence Cell-Based Dose Confirmation HTS to Identify Activators of 5'UTR Stem-Loop Driven Alpha-Synuclein mRNA Translation in H4 Neuroglioblastoma Cells. [Related pubchem assays: 1829 (Project Summary), 1814 (Primary HTS)]; type: functional
[24] = growth suppression of PTEN-null colon cells, dose response, cell-based, HCT116 PTEN knockout (AID 1047); type: functional;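 note: HCT116 colon tumor cells with PTEN knocked out; cells exposed to compound for 60 hours before readout; potency for loss of cell viability measured by luminescence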
[25] = growth suppression of beta-catenin-knockout colon cells, dose response, cell-based, HCT116, human colon tumor (AID 1045); type: functional;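 note: HCT116 colon tumor cells with beta catenin knocked out; cells exposed to compound for 60 hours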
[26] = biological target: FAD-linked sulfhydryl oxidase ALR (Homo sapiens, UniProt P55789); assay: inhibitors of human ALR sulfhydryl oxidase, dose response, biochemical, H2O2 detection, luminescence, cherry-pick (AID 493248)
[27] = biological target: DNA dC->dU-editing enzyme APOBEC-3G (Homo sapiens, UniProt Q9HC16); assay: Dose Response confirmation of small molecule APOBEC3G DNA Deaminase Inhibitors via a fluorescence-based single-stranded DNA deaminase assay. [Related pubchem assays (depositor defined):AID493012, AID493028]; type: functional
DNA dC->dU-editing enzyme APOBEC-3G, sequence (Q9HC16 whole entry): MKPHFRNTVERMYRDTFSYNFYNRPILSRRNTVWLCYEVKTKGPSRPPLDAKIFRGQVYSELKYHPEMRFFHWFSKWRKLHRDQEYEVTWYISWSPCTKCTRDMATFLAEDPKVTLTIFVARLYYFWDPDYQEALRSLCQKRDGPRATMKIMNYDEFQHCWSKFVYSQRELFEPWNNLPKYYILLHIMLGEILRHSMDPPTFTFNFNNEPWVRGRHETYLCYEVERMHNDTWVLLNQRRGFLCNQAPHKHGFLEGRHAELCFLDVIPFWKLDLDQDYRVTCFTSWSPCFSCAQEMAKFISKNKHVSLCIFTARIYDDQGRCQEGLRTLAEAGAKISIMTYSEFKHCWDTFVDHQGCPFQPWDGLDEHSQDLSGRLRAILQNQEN

Estrogen receptor beta, sequence (Q92731 whole entry): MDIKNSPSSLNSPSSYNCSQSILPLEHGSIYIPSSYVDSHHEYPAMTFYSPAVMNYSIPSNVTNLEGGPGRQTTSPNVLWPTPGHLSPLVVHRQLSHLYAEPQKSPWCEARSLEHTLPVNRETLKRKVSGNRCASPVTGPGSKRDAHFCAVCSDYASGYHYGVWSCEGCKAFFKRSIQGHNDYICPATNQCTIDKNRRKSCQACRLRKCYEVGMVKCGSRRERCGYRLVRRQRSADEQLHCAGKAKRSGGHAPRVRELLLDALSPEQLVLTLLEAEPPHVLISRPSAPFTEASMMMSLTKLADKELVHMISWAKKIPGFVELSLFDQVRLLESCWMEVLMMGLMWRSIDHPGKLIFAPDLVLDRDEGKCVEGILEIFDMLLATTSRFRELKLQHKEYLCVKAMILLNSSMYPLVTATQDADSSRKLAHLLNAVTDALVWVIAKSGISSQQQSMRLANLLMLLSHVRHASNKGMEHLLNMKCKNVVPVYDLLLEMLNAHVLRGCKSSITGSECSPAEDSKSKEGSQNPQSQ

COC(=O)Nc1c(-c2ccccc2)nc2ccc(C)cn12
IC50 [1]: > 50 µM (not active)

Fc1cc(F)c2nc(N3CCCC3)sc2c1
IC50 [2]: > 50 µM (inactive)

Cc1oc2nc(SCC(=O)NCCCO)nc(N)c2c1C
IC50 [1]: > 50 µM (not active)

COc1ccc2c3nc4ccccc4c-3c(O)oc2c1
EC50 [3]: > 12 µM (not active)
EC50 [4]: 7.49 µM (active)
EC50 [5]: < 0.1 µM (active)
EC50 [6]: > 79.4 µM (not active)
EC50 [7]: 20.1 µM (inconclusive)
EC50 [8]: 0.533 µM (active)
EC50 [9]: 8.33 µM (active)
EC50 [10]: 0.393 µM (active)

COc1ccc(NC(=O)c2oc3ccccc3c2NC(=O)c2ccc(OC)c(OC)c2)c(OC)c1
EC50 [11]: > 20 µM (not active)
EC50 [12]: > 20 µM (not active)

COCCNC(=O)CSc1nnc2c(Cl)cc(Cl)cn12
IC50 [2]: > 50 µM (inactive)

CCNC(=S)NC(=Nc1nc(C)cc(C)n1)NCc1cccnc1
IC50 [13]: 9.16 µM (active)
IC50 [14]: > 50 µM (inactive)
IC50 [15]: > 66 µM (inactive)
IC50 [16]: > 66 µM (inactive)

Cc1ccc(/C=C/C(=O)Nc2ccc(Oc3ccccc3)cc2)o1
AC50 [17]: 5.29 µM (active)
IC50 [18]: > 69.6 µM (inactive)
IC50 [19]: > 69.6 µM (inactive)

CCC(C)NCCCCOc1ccc(Cl)cc1C (stereo not given)
AC50 [20]: > 20 µM (inactive)

CC(C)CN(CC(C)C)C1=N/C(=C\c2ccco2)C(=O)N1c1ccccc1
AC50 [21]: inconclusive

Cn1c2c(c3ccccc31)CCSC2=O
CC50 [22]: > 50 µM (active)
IC50 [2]: > 50 µM (inactive)

CC1CCN(C(=O)c2ccc3ccccc3c2)CC1
EC50 [3]: 1.09 µM (active)
EC50 [23]: < 0.1 µM (active)
EC50 [5]: 35 µM (active)
EC50 [7]: > 120 µM (not active)
EC50 [8]: 10.2 µM (active)
EC50 [10]: 0.449 µM (active)

CCN(CCNC(=O)C1CCN(Cc2nc(-c3ccc(Cl)cc3)oc2C)CC1)c1ccccc1
EC50 [11]: > 20 µM (not active)
EC50 [12]: > 20 µM (not active)
EC50 [24]: 6.02 µM (active)
EC50 [25]: 6.26 µM (active)
AC50 [26]: 4.08 µM (active)

COc1ccc(C2N(c3ccccc3)CCN2c2ccccc2)cc1O
IC50 [2]: > 50 µM (inactive)

COc1ccc(-c2csc(NC(=O)COC(=O)c3ccco3)n2)cc1
EC50 [3]: > 12 µM (not active)
EC50 [23]: 35.9 µM (active)
EC50 [5]: 29 µM (active)
EC50 [7]: 0.188 µM (active)
EC50 [8]: > 12 µM (not active)
EC50 [10]: > 12 µM (not active)

COc1ccc(OC)c(C2CC(=O)N3CN(c4ccccc4)CSC3=C2C#N)c1 (stereo not given)
IC50 [13]: 6.54 µM (active)
IC50 [14]: > 50 µM (inactive)
IC50 [27]: 11.8 µM (active)

COc1ccc(-c2ccc(CN3C(C(C)C)C(=O)N(Cc4cn(Cc5ccco5)nn4)CCS3(=O)=O)cc2)cc1OC (stereo not given)
IC50 [18]: > 69.5 µM (inactive)
IC50 [19]: > 69.5 µM (inactive)

COc1ccc(/N=C2\SC(CC(=O)Nc3ccc(F)cc3)C(=O)N2Cc2ccco2)cc1 (stereo not given)
IC50 [18]: > 69.5 µM (inactive)
IC50 [19]: > 69.5 µM (inactive)
